Measurements: patent US6472415B1, “Androgen receptor suppressors in the therapy and diagnosis of prostate cancer, alopecia and other hyper-androgenic syndromes” (priority 1998, dated 2002)
Read-outs that look alike come from different tables or passages of the source.

Assays:
[1] = test system: human prostate cancer cells LNCaP; experiment: XXT cell viability assay, 72 hours; assay type: cell-based
Method: After 72 hours, an XXT assay (Scudievo, et al., Cancer Research, 48:4827 (1988)) indicating cell viability was carried out.

[2] = Systemic toxicity, repeated i.p. injection in mice; assay type: in vivo; conditions: for Dose with morbidity but no mortality / Dose given without mortality or morbidity: i.p. every 2nd day; for Dose given without mortality or morbidity: 5 times
Method: Systemic toxicity was orientationally evaluated by i.p. injection every 2nd day in mice. […] For BP-34, the corresponding values were 150 mg/kg bw and 300 mg/kg bw.
The maximum tolerated dose should thus be approximately 300 mg/kg. For BP-34, i.p. injections of 100-300 mg/kg produce no mortalities in mice. […] Therefore, the maximum tolerated dose of BP-34 should be approximately 250 mg/kg.

[3] = target: T1, androgen receptor (Homo sapiens, UniProt P10275, T878A); experiment: Androgen receptor remaining in LNCaP cell lysate, Western Blot; assay type: cell-based; conditions: for Percent Androgen Receptor Remaining: Table 7 controls, incubation time not given; for Percent of the androgen receptor remaining: 48 hours
T1 construct: endogenous in cells; host or cells: LNCaP human prostate cancer cells
T1 sequence (P10275 whole entry T878A): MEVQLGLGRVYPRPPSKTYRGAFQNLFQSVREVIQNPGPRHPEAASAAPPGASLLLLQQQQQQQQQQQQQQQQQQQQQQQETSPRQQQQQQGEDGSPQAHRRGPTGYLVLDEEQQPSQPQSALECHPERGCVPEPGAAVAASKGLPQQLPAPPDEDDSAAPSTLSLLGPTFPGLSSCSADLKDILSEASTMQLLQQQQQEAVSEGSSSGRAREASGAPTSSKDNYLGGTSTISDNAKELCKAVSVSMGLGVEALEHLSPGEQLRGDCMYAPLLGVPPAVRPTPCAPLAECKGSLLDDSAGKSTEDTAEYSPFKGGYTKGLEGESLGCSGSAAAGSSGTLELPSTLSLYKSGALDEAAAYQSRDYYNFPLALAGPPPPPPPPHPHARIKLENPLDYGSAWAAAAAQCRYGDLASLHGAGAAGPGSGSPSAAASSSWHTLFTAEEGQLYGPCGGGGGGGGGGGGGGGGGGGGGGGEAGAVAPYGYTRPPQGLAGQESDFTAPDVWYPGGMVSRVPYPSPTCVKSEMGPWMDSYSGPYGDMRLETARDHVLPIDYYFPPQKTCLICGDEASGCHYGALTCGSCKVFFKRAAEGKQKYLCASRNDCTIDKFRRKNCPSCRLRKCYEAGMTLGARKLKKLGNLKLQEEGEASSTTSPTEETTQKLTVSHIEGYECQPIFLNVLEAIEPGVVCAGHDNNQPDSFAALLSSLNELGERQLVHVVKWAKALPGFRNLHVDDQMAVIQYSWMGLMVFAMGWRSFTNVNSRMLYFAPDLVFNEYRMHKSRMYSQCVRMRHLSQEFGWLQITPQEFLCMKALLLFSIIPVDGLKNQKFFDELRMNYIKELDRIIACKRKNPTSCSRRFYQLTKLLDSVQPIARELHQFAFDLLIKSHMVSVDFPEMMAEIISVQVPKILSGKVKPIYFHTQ
Method: The interaction of the compounds with AR was studied by incubation with LNCaP cells, subsequent cell lysis and the standard Western Blot assay.

[4] = test system: prostate and seminal vesicles; experiment: Weight of prostate and seminal vesicles (secondary sex organs) in rats; assay type: in vivo; conditions: for Reduction of secondary sex organs' weight: castrated rats supplemented with testosterone propionate, 0.1 mg/kg
Method: (The dose of 0.1 mg/kg approximates the expected topical daily dose for humans).

[5] = remark: listed apart in the source
Method: Compounds were tested for stability in human serum at 38° C. They were dissolved in isopropanol/H2O (95:5), mixed with human serum to a concentration of 0.5 mg/mL, and incubated at 38° C. Serum aliquots were extracted with ethyl acetate and analyzed by HPLC.
(Permadi, H.; Lundgren, B.; Andersson, K.; Sundberg, C.; DePierre, J. W. Effects of perfluoro fatty acids on peroxisome proliferation and mitochondrial size in mouse liver: dose and time factors and effect of chain length. Xenobiotica, 91993) Vol. 23, No. 7, pp.761-70).

[6] = test system: androgenic alopecia; conditions: three male volunteers, 1% solution in ethanol
[7] = i.m., 75 mg/kg bw
[8] = not given; remark: listed apart in the source
[9] = rabbits, 2× daily 0.5 mL of 10% solution in 50/50 PEG 400/EtOH, shaved skin 20 cm^2; HPLC sensitivity 5 nanograms
[10] = Tissue distribution 4 hours after intravenous injection in male rats; conditions: 300 g male rats, after 4 hours
[11] = isopropanol/H2O (95:5), 50° C., up to six days
[12] = Rabbit, skin 20 cm^2, 100 mg/d, 10 d

For CC(O)(CNCC(C)(O)C(=O)Nc1ccc(Cl)cc1)C(=O)Nc1ccc(Cl)cc1 (stereo not shown), the melting point was 76 to 78 °C.
In the case of CC(O)(CN)C(=O)Nc1ccc([N+](=O)[O-])c(C(F)(F)F)c1 (stereo not shown) [BP-34, 4-nitro-3-trifluoromethyl-N-(2-hydroxy-2-methyl-3-aminopropionyl)aniline], the “Effect on the LNCaP cells” value [1] is reported as “no effect”, the “Dose with morbidity, but not mortality” value ([2]; i.p.) is reported as 300 mg/kg and the “i.p. doses producing no mortalities” value ([2]; i.p.) is reported as 100 to 300 mg/kg. For the same compound, the “Dose with morbidity but no mortality” value [2] was 300 mg/kg bw, the “Dose given without mortality or morbidity” value [2] was 150 mg/kg bw and the MTD ([2]; mouse, in vivo, ip, read-out: Maximum tolerated dose) was about 250 mg/kg. The “Percent Androgen Receptor Remaining” value ([3]; LNCaP, 3μ Molar conc) was 97%, the “Percent of the androgen receptor remaining” value ([3]; LNCaP, 3μ Molar conc.) was 97% and the “Percent Androgen Receptor Remaining” value ([3]; LNCaP, 10μ Molar conc) was 98%. For the same compound, the “Percent of the androgen receptor remaining” value ([3]; LNCaP, 10μ Molar conc.) was 98% and the “Effect on the AR” value ([3]; LNCaP, Western Blot) was “no effect”.
For CC(O)(CNC(=O)C(F)(F)C(F)(F)C(F)(F)F)C(=O)Nc1ccc([N+](=O)[O-])c(C(F)(F)F)c1 (stereo not shown) [BP-521, 4-nitro-3-trifluoromethyl-N-(2′-hydroxy-2′-methyl-3′-N-(heptafluorobutyramido)propionyl)aniline], the “Reduction of secondary sex organs' weight” value [4] was “did not reduce”, the “Reduction of average weight of prostate and seminal vesicles” value ([4]; intact rats, 10 times subcutaneously 100 mg/kg) was “about 46%” and the “Dose with morbidity but no mortality” value [2] was 350 mg/kg bw. The “Dose given without mortality or morbidity” value [2] was 200 mg/kg bw, the “Percent of the intact compound remaining in human serum” value ([5]; human, serum, 6 h) was 97.5% and the “Percent of the intact compound remaining in human serum” value ([5]; human, serum, 24 h) was 90.0%. For the same compound, the “Percent of the intact compound remaining in human serum” value ([5]; human, serum, 48 h) was 84.0%, the “Percent of the intact compound remaining in human serum” value ([5]; human, serum, 144 h) was 60.0% and the “Effect on incipient androgenic alopecia of the forehead line” value ([6]; 0.5 mL twice daily on scalp) was “effectively arrested incipient androgenic alopecia”. The “Hair growth” value ([6]; 0.5 mL twice daily, after 8 weeks) was “induced copious growth of vellum hair”, the μg/ml blood ([7]; Rat ~140 g, 0.5 hrs) was 0.7 µg/mL and the Cumulative % dose ([7]; Rat) was 2.9%. For the same compound, the “Cumulative mg/total blood volume” value ([7]; Rat) was 2.1 µg, the μg/ml blood ([7]; Rat, 1.0 hrs) was 4.7 µg/mL and the μg/ml blood ([7]; Rat, 1.5 hrs) was 2.2 µg/mL. It also gave a μg/ml blood ([7]; Rat, 24 hrs) of 1.0 µg/mL, a μg/ml blood ([8]; Rabbit ~3 kg, i.p., 150 mg/kg bw, 0.5 hrs) of 1.9 µg/mL and a μg/ml blood ([8]; Rabbit ~3 kg, oral, 100 mg/kg bw, 0.5 hrs) of 1.5 µg/mL. For the same compound, the μg/ml blood ([8]; Rabbit ~3 kg, skin 20 cm^2, 100 mg/d, 10 d, 0.5 hrs) was 0 µg/mL, the Cumulative % dose ([8]; Rabbit, i.p., 150 mg/kg bw) was 2.8% and the “Cumulative mg/total blood volume” value ([8]; Rabbit, i.p., 150 mg/kg bw) was 11.6 µg. The μg/ml blood ([8]; Rabbit, i.p., 150 mg/kg bw, 1.0 hrs) was 3.2 µg/mL, the μg/ml blood ([8]; Rabbit, i.p., 150 mg/kg bw, 1.5 hrs) was 1.9 µg/mL and the μg/ml blood ([8]; Rabbit, i.p., 150 mg/kg bw, 2.5 hrs) was 1.5 µg/mL. The μg/ml blood ([8]; Rabbit, i.p., 150 mg/kg bw, 7.0 hrs) was 3.0 µg/mL, the μg/ml blood ([8]; Rabbit, i.p., 150 mg/kg bw, 24 hrs) was 2.2 µg/mL and the Cumulative % dose ([8]; Rabbit, oral, 100 mg/kg bw) was 1.50%. The “Cumulative mg/total blood volume” value ([8]; Rabbit, oral, 100 mg/kg bw) was 3.0 µg, the μg/ml blood ([8]; Rabbit, oral, 100 mg/kg bw, 1.0 hrs) was 1.7 µg/mL and the μg/ml blood ([8]; Rabbit, oral, 100 mg/kg bw, 1.5 hrs) was 2.6 µg/mL. For the same compound, the μg/ml blood ([8]; Rabbit, oral, 100 mg/kg bw, 2.5 hrs) was 1.5 µg/mL, the μg/ml blood ([8]; Rabbit, oral, 100 mg/kg bw, 7.0 hrs) was 1.0 µg/mL and the μg/ml blood ([8]; Rabbit, oral, 100 mg/kg bw, 24 hrs) was 1.0 µg/mL. The Cumulative % dose [8, 12] was 0%, the “Cumulative mg/total blood volume” value [8, 12] was 0 µg and the μg/ml blood ([8]; Rabbit, skin 20 cm^2, 100 mg/d, 10 d, 1.0 hrs) was 0 µg/mL. For the same compound, the μg/ml blood ([8]; Rabbit, skin 20 cm^2, 100 mg/d, 10 d, 1.5 hrs) was 0 µg/mL, the μg/ml blood ([8]; Rabbit, skin 20 cm^2, 100 mg/d, 10 d, 2.5 hrs) was 0 µg/mL and the μg/ml blood ([8]; Rabbit, skin 20 cm^2, 100 mg/d, 10 d, 7.0 hrs) was 0 µg/mL. For the same compound, the μg/ml blood ([8]; Rabbit, skin 20 cm^2, 100 mg/d, 10 d, 24 hrs) was 0 µg/mL, the “Bioavailability” value ([8]; from the subcutaneous, muscle and intraperitoneal spaces) was “low” and the “Peak serum levels as % of the injected dose” value ([8]; oral test) was 0.0052%. The “Topical absorption” value [9] was “No absorption was found”.
For CC(O)(CSCC=C([125I])[125I])C(=O)Nc1ccc(C#N)c(C(F)(F)F)c1 (stereo not shown) [BP-554], the “Accumulation in the prostate vis-a-vis other tissues” value [10] was “substantial accumulation in the prostate”.
With CC(O)(COC/C=C/[125I])C(=O)Nc1ccc(C#N)c(C(F)(F)F)c1 (stereo not shown) [BP-636] the “Accumulation in the prostate vis-a-vis other tissues” value [10] was “substantial accumulation in the prostate”.
For CC(O)(CNC(=S)Nc1ccc(Br)cc1)C(=O)Nc1ccc([N+](=O)[O-])c(C(F)(F)F)c1 (stereo not shown) [BP-668, 3-((((4-bromophenyl)amino)thioxomethyl)amino)-2-hydroxy-2-methyl-N-(4-nitro-3-(trifluoromethyl)phenyl)propanamide], the “Reduction of secondary sex organs' weight” value [4] was “did not reduce”, the “Percent of the intact compound remaining in human serum” value ([5]; 38° C., 0.5 mg/mL, 24 h) was 100% and the “Percent of the intact compound remaining in human serum” value ([5]; 38° C., 0.5 mg/mL, 48 h) was 100%. For the same compound, the “Percent of the intact compound remaining in human serum” value ([5]; 38° C., 0.5 mg/mL, 6 d) was 100%, the “Suppression of the AR” value ([3]; 3 μM concentration) was “important suppression” and the “Elimination of the AR” value ([3]; 10 μM concentration) was “practically eliminated the AR”. For the same compound, the “Percent of the androgen receptor remaining” value ([3]; LNCaP, 3μ Molar conc.) was 73%, the “Percent of the androgen receptor remaining” value ([3]; LNCaP, 10μ Molar conc.) was 0% and the melting point was 192 to 195 °C. For the same compound, the “Change via HPLC in accelerated stability study” value [11] was “no change was observed”.
